From patent US4490363A, “Metorphamide--a novel morphine-like peptide” (Board of Trustees of The Leland Stanford Junior University …, priority 1983, dated 1984)
Read-outs that look alike come from different tables or passages of the source. Peptide text beside a SMILES is read from it.

How the values were obtained:
Rat vas deferens [1] = settings: values marked ** (from literature); cited from earlier work
Rabbit vas deferens = experiment: Opioid bioassay, rabbit vas deferens; format: cell-based; settings: mean±SEM; peptidases inhibited by bestatin (30 μM), L-leucyl-L-leucine, thiorphan, captopril
Protocol: (§1) Bioassays were performed using preparations of the myenteric plexus-longitudinal muscle of the guinea pig and the vasa deferentia of the mouse, rabbit and rat. According to the procedures described by McKnight et al., Eur. J. Pharmacol., 86, 393-402 (1983) and Corbett et al., Nature, 299, 79-81 (1982). The drugs were prepared as 1 mg/ml stock solutions in water and dilutions were made in Krebs solution. The bioassays were performed on [Met 5] enkephalin and C-terminally extended Met 5 enkephalins, and compared with metorphamide.
(§2) The values shown are the mean±SEM of 4 observations and of 6 for [Met^5 ]enkephalyl-Arg-Arg-Val-Gly. The activity of the peptidases was inhibited by bestatin (10 μM, or 30 μM in the rat and rabbit), L-leucyl-L-leucine ([…]), thiorphan (0.3 μM) and captopril (10 μM).

μ-site = experiment: Binding assay in guinea pig brain homogenates, μ-ligand [3H]-[D-Ala2,MePhe4,Gly-ol5]enkephalin; settings: for Ki: guinea-pig brain homogenates, 150 minutes at 0° C., mean ±SEM, read-out: KI, [3H]-[DAla2,MePhe4,Gly-ol5]enkephalin (μ-site)
Protocol: (§3) [^3 H]-[D-Ala^2,MePhe^4, Gly-ol^5 ]enkephalin (1 nM) was used as μ-ligand, [^3 H]-[D-Ala^2,D-Leu^5 ]enkephalin (1 nM) as a relatively selective δ-ligand and [^3 H]-(-)-bremazocine (0.3 nM) as κ-ligand, in the presence of 100 nM each of unlabelled [D-Ala^2,MePhe^4,Gly-ol^5 ]enkephalin and [D-Ala^2,D-Leu^5 ]enkephalin for the suppression of μ- and δ-binding.
(§4) The μ- and […] of [^3 H]-(-)-bremazocine was suppressed with 100 nM each of unlabelled [D-Ala^2,MePhe^4,Gly-ol^5 ]enkephalin and [D-Ala^2,D-Leu^5 ]enkephalin.

δ-site = format: binding, guinea pig; settings: for Ki: guinea-pig brain homogenates, 150 minutes at 0° C., mean ±SEM, read-out: KI, [3H]-[DAla2,D-Leu5]enkephalin (δ-site)
Protocol: as §3, §4

Mouse vas deferens [2] = settings: values marked ** (from literature); cited from earlier work
[3] = system: myenteric plexus-longitudinal muscle of the guinea pig; settings: values marked ** (from literature); cited from earlier work
κ-site = molecular target: T1, κ-site (Cavia porcellus, UniProt P41144); experiment: Binding assay in guinea pig brain homogenates, [3H]-(-)-bremazocine after suppression of μ- and δ-binding
T1 construct: The assays used homogenates of guinea-pig brain; from tissue; host or cells: guinea pig brain homogenate
Protocol: as §3, §4

[4] = system: anti-serum (R1-3) to synthetic metorphamide; experiment: Radioaminoassay of metorphamide: cross-reaction with anti-serum R1-3, 125I-labeled synthetic metorphamide as tracer; format: binding, rabbit; settings: on a molar basis
From the text: An anti-serum to synthetic metorphamide was generated in male New Zealand white rabbits by injecting synthetic peptide linked to bovine thyroglobulin by carbodiimide according the method of Weber et al., J. Neurochem., 38, 436-447 (1982). The resulting anti-serum (R1-3) was used in a radioaminoassay using ^125 I labeled synthetic metorphamide as a tracer. The procedure used was as described by Weber et al. with modifications described by Weber et al., Nature, 299, 77-79 (1982). The metorphamide or radioaminoassay requires the carboxylterminal amide group as part of the recognition site. On a molar basis the free carboxy derivative of metorphamide cross reacts with less than 1.02% and the analog of metorphamide in which the carboxyterminal amide was substituted by a Glycine residue cross reacts at less than 0.3%. The adrenal medulla opioid peptides Bam-22 and Bam-12 (Mizuno et al., Biochem. Biophys. Res. Commun., 95, 1482-1488 (1980); Mizuno et al., Biochem. Biophys. Res. Commun., 97, 1283-1290 (1980)) which are carboxyterminal extensions of metorphamide both cross react less than 0.006% in the radioaminoassay.

Mouse vas deferens [5] = experiment: Opioid bioassay, mouse vas deferens; format: cell-based; settings: mean±SEM; peptidases inhibited by bestatin, L-leucyl-L-leucine, thiorphan, captopril
Protocol: as §1, §2

[6] = system: myenteric plexus-longitudinal muscle of the guinea pig; experiment: Opioid bioassay, guinea-pig myenteric plexus-longitudinal muscle; format: cell-based; settings: mean±SEM; peptidases inhibited by bestatin, L-leucyl-L-leucine, thiorphan, captopril
Protocol: as §1, §2

Rat vas deferens [7] = experiment: Opioid bioassay, rat vas deferens; format: cell-based; settings: peptidases inhibited by bestatin (30 μM), L-leucyl-L-leucine, thiorphan, captopril
Protocol: as §1, §2

carboxypeptidase A = molecular target: T2, carboxypeptidase A (Bos taurus, UniProt P00730); experiment: Carboxypeptidase A digestion of bovine metorphamide and dynorphin; format: in vitro ADME; settings: 400 ng enzyme, 37° C., pH 7.5
T2 construct: purchased Sigma (printed as σ) type 1-DFP
T2 sequence (P00730 111-419): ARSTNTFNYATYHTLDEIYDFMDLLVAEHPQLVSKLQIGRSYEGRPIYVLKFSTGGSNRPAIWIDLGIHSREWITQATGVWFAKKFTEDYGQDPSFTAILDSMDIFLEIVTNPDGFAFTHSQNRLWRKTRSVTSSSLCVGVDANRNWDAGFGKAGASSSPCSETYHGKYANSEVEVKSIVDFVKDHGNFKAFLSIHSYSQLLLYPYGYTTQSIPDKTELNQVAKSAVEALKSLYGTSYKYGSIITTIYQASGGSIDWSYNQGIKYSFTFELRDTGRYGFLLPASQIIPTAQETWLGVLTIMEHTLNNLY
Protocol: A mixture of bovine metorphamide (30-35 pmol.) and synthetic dynorphin (60-70 pmol.) was dissolved in 1.6 ml. 0.02 m Tris buffer, containing 0.2 m NaCl and 0.1% Triton X-100, pH 7.5. 5 μl of a 20 mg/ml suspension of carboxypeptidase A (σ, type 1-DFP) containing 100 μg enzyme were dissolved in 1 ml. 10% LiCl. […] aliquots were withdrawn at times 1, 5, 10 and 60 minutes an equal volume of glacial acetic acid was added to each sample to terminate the enzyme reaction. After evaporation, the samples were assayed in triplicate by radioaminoassay for dynorphin and metorphamide. 0 time samples were withdrawn before enzyme was added to determine the amounts of peptides that were initially present in the incubation mixture. A separate sample of peptide mixture that received 4 μl of 10% LiCl without the enzyme was incubated at 37° C. for 60 minutes and 50 μl aliquots of this sample were also assayed for metorphamide and dynorphin. This latter sample served as a control for any non-specific degradation of peptide that may have occurred by unknown factors. […] The results of the digestion are shown in FIG. 2 wherein the metorphamide is indicated by O--O and dynorphin by X--X. Bovine metorphamide was stable to carboxypeptidase A digestion for at least 60 minutes while dynorphin was completely digested by the enzyme after 5 minutes.

[8] = at KD concentrations of the tritiated ligands, total binding=1

T1 sequence (P41144 whole entry): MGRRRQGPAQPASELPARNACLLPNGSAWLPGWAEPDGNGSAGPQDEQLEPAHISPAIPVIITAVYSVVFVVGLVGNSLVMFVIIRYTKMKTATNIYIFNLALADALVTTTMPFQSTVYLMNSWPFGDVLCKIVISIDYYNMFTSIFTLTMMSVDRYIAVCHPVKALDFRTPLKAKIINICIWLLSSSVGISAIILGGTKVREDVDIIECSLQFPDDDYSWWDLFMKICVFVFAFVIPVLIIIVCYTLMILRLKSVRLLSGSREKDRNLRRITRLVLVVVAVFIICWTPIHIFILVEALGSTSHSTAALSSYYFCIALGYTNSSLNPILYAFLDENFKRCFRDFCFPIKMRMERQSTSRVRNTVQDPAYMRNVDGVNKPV

Compound	IC50 (Rabbit vas deferens) [nM]	Ki (μ-site) [nM]	Ki (δ-site) [nM]	Ki (κ-site) [nM]	IC50 (Mouse vas deferens [5]) [nM]	IC50 [6] [nM]	IC50 (Rat vas deferens [7]) [nM]	further results
CSCC[C@H](NC(=O)[C@H](Cc1ccccc1)NC(=O)CNC(=O)CNC(=O)[C@@H](N)Cc1ccc(O)cc1)C(=O)O [A, [Met^5]enkephalin]	> 10000	9.5 ± 0.54	0.91 ± 0.07					IC50 (Rat vas deferens [1]): 260 nM; IC50 (Mouse vas deferens [2]): 1.45 nM; IC50 [3]: 6.7 nM
CSCC[C@H](NC(=O)[C@H](Cc1ccccc1)NC(=O)CNC(=O)CNC(=O)[C@@H](N)Cc1ccc(O)cc1)C(=O)N[C@@H](CCCNC(=N)N)C(=O)N[C@@H](CCCNC(=N)N)C(=O)O [C, [Met^5]enkephalylArg-Arg]				11.2 ± 1.8				
CSCC[C@H](NC(=O)[C@H](Cc1ccccc1)NC(=O)CNC(=O)CNC(=O)[C@@H](N)Cc1ccc(O)cc1)C(=O)N[C@@H](CCCNC(=N)N)C(=O)N[C@@H](CCCNC(=N)N)C(=O)N[C@H](C(=O)O)C(C)C [D, [Met^5 ]enkephalylArg-Arg-Val]				2.11 ± 0.29				
CSCC[C@H](NC(=O)[C@H](Cc1ccccc1)NC(=O)CNC(=O)CNC(=O)[C@@H](N)Cc1ccc(O)cc1)C(=O)N[C@@H](CCCNC(=N)N)C(=O)N[C@@H](CCCNC(=N)N)C(=O)N[C@H](C(=O)NCC(=O)O)C(C)C [E] (H-YGGFMRRVG-OH; N-terminus and C-terminus assumed)	54.7 ± 11	1.39 ± 0.23	8.58 ± 1.54		21.4 ± 3.1	6.62 ± 0.8	> 3000	cross reaction in the metorphamide radioaminoassay [4]: less than 0.3%
CSCC[C@H](NC(=O)[C@H](Cc1ccccc1)NC(=O)CNC(=O)CNC(=O)[C@@H](N)Cc1ccc(O)cc1)C(=O)N[C@@H](CCCNC(=N)N)C(=O)N[C@@H](CCCNC(=N)N)C(=O)N[C@H](C(N)=O)C(C)C [F]	41.2 ± 4.9	0.115 ± 0.019	2.65 ± 0.23		6.2 ± 1.1	2.46 ± 0.34	> 3000	relative potency (relative affinity) at the μ-site (μ-site; [8]): 0.66; activity for the μ-binding site relative to that of morphine (μ-site; ratio of relative affinities): approximately 2/3; relative potency (relative affinity) at the δ-site (δ-site; [8]): 0.03; time stable to carboxypeptidase A digestion (carboxypeptidase A): at least 60 minutes; relative potency (relative affinity) at the κ-site (κ-site; [8]): 0.31
CC[C@H](C)[C@H](NC(=O)[C@H](CCCNC(=N)N)NC(=O)[C@H](CCCNC(=N)N)NC(=O)[C@H](CC(C)C)NC(=O)[C@H](Cc1ccccc1)NC(=O)CNC(=O)CNC(=O)[C@@H](N)Cc1ccc(O)cc1)C(=O)N[C@@H](CCCNC(=N)N)C(=O)N1CCC[C@H]1C(=O)N[C@@H](CCCCN)C(=O)N[C@@H](CC(C)C)C(=O)N[C@@H](CCCCN)C(=O)N[C@@H](Cc1c[nH]c2ccccc12)C(=O)N[C@@H](CC(=O)O)C(=O)N[C@@H](CC(N)=O)C(=O)N[C@@H](CCC(N)=O)C(=O)O [dynorphin]								time after which completely digested by carboxypeptidase A (carboxypeptidase A): 5 min
